The record followed here is patent publication US20260071518A1, “SURFACTANT FOR CARBON DIOXIDE STORAGE” (TOTALENERGIES ONETECH, priority 2022, published 2026).

A short description of data set [1]: carbonate core co-injection of carbon dioxide and surfactant-water composition, gas saturation and apparent viscosity (Example 4). The class given is physicochemical. Particulars: 0.2 wt. % in water, 110° C., 150 bar. The procedure: In this example, experiments were conducted using a carbonate core. The core was 30.1 cm long, having a diameter of 3.8 cm, a porosity of 28%, permeability of 130 md.
A surfactant-water composition was prepared by dissolving 0.2 wt. % of a surfactant compound (compound E of Example 1, N^1-dodecyl-N^3,N^3-dimethylpropane-1,3-diamine) in water.
Carbon dioxide and the surfactant-water composition were co-injected into the carbonate core via two separate inlets, at a temperature of 110° C. and at a pressure of 150 bar, with a total flow rate of 4 ft/day, varying the fraction of carbon dioxide from 50% to 95%. Carbon dioxide and water alone were also co-injected into the carbonate core under the same conditions.
The gas saturation in the core was measured by obtaining a mass balance between what is injected (water+CO2−pump control) and produced water measured by burette (volume) along with a scale (mass).
The apparent viscosity was calculated based on Darcy's law.

Data set [2] can be described thus: slim tube packed with sand, co-injection of carbon dioxide and surfactant-brine composition, apparent viscosity (Example 1). Format: physicochemical. Particulars: 0.2 wt. % in 220 g/L NaCl brine, pH=6, 25° C., 150 bar, carbon dioxide fraction 50%, versus comparative surfactant compounds. The procedure:
In this example, experiments were conducted within a slim tube packed with sand. The tube length was 25 cm, the tube diameter was 1 cm.
Various surfactant compositions were made by dissolving 0.2 wt. % of an individual surfactant compound in brine having a NaCl content of 220 g/L, buffered at pH=6 with a sodium acetate/acetic acid buffer.
Carbon dioxide and the surfactant-brine composition were co-injected into the slim tube via two separate inlets, at a temperature of 25° C. and at a pressure of 150 bar, with a total flow rate of 60 ft/day and a carbon dioxide fraction of 50%.
The pressure drop across the tube was measured and the apparent viscosity was calculated based on Darcy's law. Specifically, the apparent viscosity was obtained according to the following formula: (permeability×pressure gradient)/(volume flow/inlet area of the core (tube)).

Regarding `CCCCCCCCCCCCNCCCN(C)C` [Compound E, N^1-dodecyl-N^3,N^3-dimethylpropane-1,3-diamine], the “apparent viscosity of the resulting emulsion” value in data set [1] (CO2 fraction 50% to 95%, versus absence of surfactant) is “higher apparent viscosity”. For the same compound, the “change of apparent viscosity with CO2 fraction” value in data set [1] (CO2 fraction increased from 50 to 95%) is “decreased”. For the same compound, the “gas (CO2) saturation increase compared to absence of surfactant” value in data set [1] (at each CO2 fraction tested (50% to 95%)) is 2-4 fold. Also, in data set [2], the “rise in apparent viscosity” value was “quicker and higher rise in viscosity”.
